Where only a bound is given, the exact number is not on record here.

In assay [1] the target is T1, 5HT2 receptor (Mus musculus, UniProt P35363).
T1 construct: from tissue; host or cells: whole living mouse (endogenous receptor of the brain)
Nature of the assay: 5-DMT head twitch test. The format is in vivo. Conditions: ip, mice, 5-DMT induced head twitch, read-out: ED50 FOR ABOLITION OF HEAD TWITCH. On the procedure:
Psychopharmacol., Vol. 3, pages 89-92, (1979). The administration of 5-methoxy-N,N-dimethyltryptamine (DMT) to mice typically produces a characteristic head twitch in the mice. In this test, the mice are administered 5-DMT and a test compound. An absence of head twitches in the mice is considered to be predictive of the ability of the test compound to antagonize the 5HT2 receptor in vivo.

Assay [2] deals with T2, 5HT2 receptor (Rattus norvegicus, UniProt P14842).
T2 construct: from tissue
Nature of the assay: [3H] spiroperidol binding test. From the text:
In this test, 5HT2 receptors are exposed to both [^3 H] spiroperidol, (a substance known to have a specific affinity for the receptor) and the test compound. The extent to which there is a decrease in binding of the [^3 H] spiroperidol to the receptor is indicative of the affinity of the test compound for the 5HT2 receptor.
1-(4-Fluorophenyl)-2-[4-[(4-methanesulfonamidophenyl)carbonyl]-1-piperidinyl]-ethanone (Compound #1) and 1-(4-fluorophenyl)-2-[4-[(4-acetamidophenyl)carbonyl]-1-piperidinyl]-ethanone (Compound #2) were tested in this procedure. For comparative purposes, 1-(3-pyridyl)-2-[4 -[(4-methanesulfonamidophenyl)carbonyl]-1-piperidinyl]ethanone (Compound #3) and N-[4-[[1-[2-(4-fluoro phenyl)ethyl]-4-piperidne]carbenyl]phenyl] methane sulfononamide (compound #4) were also tested. Compound #4 was described in European Application 0 320 983, supra, as Example Number 8 and was prepared in that manner.

The next assay concerns thrombus formation. Conditions: canine models; Bush et al., Drug Development Research, Vol. 7 (1986); cited from earlier work.
In assay [3] the test system is coronary vessel constriction. Conditions: patients with stable angina; Golino et al., NEJM 1991; cited from earlier work.
In assay [4] the test system is rabbit vascular smooth muscle cells. Conditions: culture of rabbit vascular smooth muscle cells; Araki et al., Atherosclerosis, 83 (1990); cited from earlier work.
The subject of assay [5] is phospholipase C mediated hydrolysis of phosphoinositides in rabbit vascular smooth muscle cells. Conditions: Araki et al.; cited from earlier work.

T1 sequence (P35363 whole entry): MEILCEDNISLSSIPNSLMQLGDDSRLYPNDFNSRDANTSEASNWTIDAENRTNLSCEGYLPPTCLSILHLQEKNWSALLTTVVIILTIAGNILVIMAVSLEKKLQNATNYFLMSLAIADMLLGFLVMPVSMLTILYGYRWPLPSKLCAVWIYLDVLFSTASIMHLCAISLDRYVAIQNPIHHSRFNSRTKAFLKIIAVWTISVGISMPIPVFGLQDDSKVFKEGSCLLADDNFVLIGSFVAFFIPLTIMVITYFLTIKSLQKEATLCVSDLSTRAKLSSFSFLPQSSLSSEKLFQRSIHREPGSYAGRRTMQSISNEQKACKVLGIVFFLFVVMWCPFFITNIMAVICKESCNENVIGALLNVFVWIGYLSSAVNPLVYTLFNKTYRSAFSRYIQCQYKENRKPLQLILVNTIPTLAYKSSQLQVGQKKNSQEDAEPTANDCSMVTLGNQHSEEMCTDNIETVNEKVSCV
T2 sequence (P14842 whole entry): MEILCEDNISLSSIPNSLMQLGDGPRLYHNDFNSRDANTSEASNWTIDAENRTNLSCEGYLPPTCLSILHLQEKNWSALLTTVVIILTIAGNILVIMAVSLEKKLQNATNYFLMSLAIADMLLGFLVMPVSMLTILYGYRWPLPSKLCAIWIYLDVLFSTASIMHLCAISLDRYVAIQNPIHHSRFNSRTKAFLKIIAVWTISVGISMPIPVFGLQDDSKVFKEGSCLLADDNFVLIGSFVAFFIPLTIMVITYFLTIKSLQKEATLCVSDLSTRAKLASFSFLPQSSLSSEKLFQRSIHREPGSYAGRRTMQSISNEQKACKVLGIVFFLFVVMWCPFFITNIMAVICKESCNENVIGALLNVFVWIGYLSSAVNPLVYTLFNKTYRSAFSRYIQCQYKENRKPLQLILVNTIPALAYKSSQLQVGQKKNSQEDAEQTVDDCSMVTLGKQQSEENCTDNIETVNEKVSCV

As to `CS(=O)(=O)Nc1ccc(C(=O)C2CCN(CC(=O)c3ccc(F)cc3)CC2)cc1` [Compound #1, 1-(4-Fluorophenyl)-2-[4-[(4-methanesulfonamidophenyl)carbonyl]-1-piperidinyl]-ethanone], on 5HT2 receptor [1], the ED50 (as a rule, the dose that gives a 50% effect, or the effect in half of the subjects) stood at 0.034 mg/kg.
The same measure, in the same setting: under `CC(=O)Nc1ccc(C(=O)C2CCN(CC(=O)c3ccc(F)cc3)CC2)cc1` [Compound #2, 1-(4-fluorophenyl)-2-[4-[(4-acetamidophenyl)carbonyl]-1-piperidinyl]-ethanone] stands 0.051 mg/kg; under `CS(=O)(=O)Nc1ccc(C(=O)C2CCN(CC(=O)c3cccnc3)CC2)cc1` [Compound #3, 1-(3-pyridyl)-2-[4-[(4-methanesulfonamidophenyl)carbonyl]-1-piperidinyl]-ethanone], over 200 mg/kg.
Take `CS(=O)(=O)Nc1ccc(C(=O)C2CCN(CCc3ccc(F)cc3)CC2)cc1` [Compound #4, N-[4-[[1-[2-(4-fluorophenyl)ethyl]-4-piperidne]carbenyl]phenyl] methane sulfononamide]: on 5HT2 receptor [2], the IC50 (as a rule, the concentration that gives 50% inhibition) was 100 nM. In addition, the ED50 at 5HT2 receptor [1] amounted to 0.49 mg/kg.
On to `O=C(c1ccc(F)cc1)C1CCN(CCn2c(=O)[nH]c3ccccc3c2=O)CC1` [Ketanserin], for which the “prevention of thrombus formation” value in the assay on thrombus formation is “extremely effective in preventing thrombus formation”. Further, in assay [3], the “block of coronary vessel constriction” value is reported as “blocked coronary vessel constriction”. Also, the “inhibition of PDGF induced DNA synthesis” value in assay [4] was “inhibited PDGF induced DNA synthesis”. In addition, the “inhibition of phospholipase C mediated hydrolysis of phosphoinositides” value in assay [5] is reported as “inhibited phospholipase C mediated hydrolysis of phosphoinositides”.

Source of the values: US5292752A, “Antithrombotic compounds” (Merrell Dow Pharmaceuticals Inc., priority 1992, dated 1994).
